Results: patent US9611286B2, “Ruthenium carbon monoxide releasing molecules and uses thereof” (Alfama, Inc., priority 2011, dated 2017)

Key:
Hen Egg White Lysozyme C = biological target: T1, Hen Egg White Lysozyme C (Gallus gallus, UniProt P00698); experiment: Hen egg white lysozyme (HEWL) assay, reactivity with proteins by LC-MS; format: binding; conditions: 10 equiv in H2O, room temperature, 10 minutes and 1 hour
T1 construct: one corresponding to the mass of native lysozyme (14305=calculated mass); from tissue; host or cells: hen egg white
Excerpt: The hen egg white lysozyme (HEWL) assay was used to assess the reactivity of Compound 1 in the presence of proteins (see, e.g., Santos-Silva, T. et al. J Am Chem Soc (2011) 133, 1192-1195). This paper describes the interactions of CORM-3 with plasma proteins. CORM-3 reacts rapidily with proteins, losing chloride ion, glycinate, and one CO ligand. […] It was observed that CORM-3 reacts faster and has a much weaker efficacy than Compound 1 in this ECM treatment.
Liquid chromatography-mass spectrometry (LC-MS) was performed on a Micromass Quattro API instrument (ESI-TOF-MS) coupled to a Waters Alliance 2795 HPLC using a MassPREP On-Line Desalting Cartridge. […]
Hen Egg White Lysozyme C (PDB code 3b61; UniProtKB/Swiss-Prot code P00698). […] Quantitative determination of lysozyme-ligand binding in the solution and gas phases by electrospray ionisation mass spectrometry follows Veros et al., Rapid Commun. […] A 50 μL aliquot was analyzed by LC-MS (calculated average isotopic mass of the egg white lysozyme=14305.1).
Santos-Silva and co-workers previously describe CORM-3's reactivity towards proteins and formation of a Ru(II) dicarbonyl-lysozyme complex (see, e.g., Santos-Silva et al., J. Am. Chem. Soc. (2011) 133:1192-1195). […] 50 μL aliquots were collected and analyzed by LC-MS over the reaction time (10 minutes and 1 hour). […]

HO-1 = HO-1 mRNA expression by qRT-PCR in infected mice; format: in vivo, C57BL/6 mice; conditions: day 3 after infection
Experimental: (§1) Mice were sacrificed, when infected control mice presented signs of ECM, and perfused intracardially with PBS to remove circulating RBC and leukocytes from the organs. RNA was isolated from brains, livers and lungs using Trizol Reagent (Invitrogen, Life technologies), according to the manufacturer's recommendation. The synthesis of the first-strand cDNA from the RNA templates was carried out using the Transcriptor First Strand cDNA Synthesis Kit (Roche). RT-PCR reactions were performed in the presence of SYBER Green (SYBER Green PCR master mix, Applied Biosystems) on an ABI PRISM 7500Fast (Applied Biosystem). Oligonucleotides used for the specific amplification of genes include:
(§2) The relative changes in gene expression between experimental and control groups were calculated by the Pfaffl method using hprt as internal control gene. Statistical Analysis

CD8β = experiment: CD8-β-chain mRNA expression in brain by qRT-PCR; format: in vivo, C57BL/6 mice
Experimental: as §1, §2

IFN-γ = IFN-γ mRNA expression in brain by qRT-PCR; format: in vivo, C57BL/6 mice
Experimental: as §1, §2

[1] = Brain histology (hematoxylin and eosin) in ECM; format: in vivo, C57BL/6 mice; conditions: P. berghei ANKA-infected mice
Experimental: For evaluation of histological features, mice were deeply anesthetized until cessation of breathing when infected control mice presented signs of ECM or ALI. The livers, lungs, and brains were removed and fixed in 10% buffered formalin for 24-72 h. Four-micron sections were cut from paraffin-embedded tissues and stained with hematoxylin and eosin according to standard procedures. Histological analyses were performed on a Leica microscope DM 2500 (Leica Microsystems).

VEGF = VEGF protein levels in plasma (ELISA), M-AALI model; format: in vivo; conditions: infected DBA/2 mice
Experimental: Mouse VEGF in plasma samples was determined using a commercial ELISA kit (R&D Systems) following the manufacturer's instructions. The group classification was only performed by the end of each experiment after determining the cause of death.

T1 sequence (P00698 19-147): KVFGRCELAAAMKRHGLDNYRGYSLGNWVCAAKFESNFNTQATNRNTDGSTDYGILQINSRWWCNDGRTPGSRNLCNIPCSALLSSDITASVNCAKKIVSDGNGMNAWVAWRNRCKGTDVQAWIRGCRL

C[SH]([C@@H]1OC(CO)[C@H](O)[C@H](O)C1O)[Ru]([Cl])([Cl])([CH]=O)([CH]=O)[CH]=O (stereo partly drawn) [Compound 1, Tricarbonyldichloro(methylthiogalactopyranoside) Ru(II)]
reactivity with HEWL (adduct formation) (Hen Egg White Lysozyme C): forms protein-Ru^II(CO)2 adducts but reacts slower than CORM-3
HO-1 mRNA expression in brain vs non-infected and Compound 2-treated mice (HO-1): not significantly different
CD8-β-chain mRNA expression in the brain vs Compound 2-treated mice (CD8β): significantly lower
IFN-γ mRNA expression vs infected Compound 2-treated mice (IFN-γ): reduced
neuropathologic features in brain sections [1]: less hemorrhages, and the vessels had lower accumulation of pRBC and leukocytes
VEGF levels in plasma (VEGF): significantly lower
